According to article PMC12057046, “Elucidation of short linear motif-based interactions of the MIT and rhodanese domains of the ubiquitin-specific protease 8” (Biology Direct, 2025):
One block for each sequence: values may come before it.

Target: T1, USP8 Rhod domain (Homo sapiens, UniProt P40818)
T1 construct: USP8 Rhod (174–317) (UniProt: P40818); GST (cleaved yes); made in house; host or cells: Escherichia coli BL21-Gold (DE3)
T1 sequence (P40818 174-317): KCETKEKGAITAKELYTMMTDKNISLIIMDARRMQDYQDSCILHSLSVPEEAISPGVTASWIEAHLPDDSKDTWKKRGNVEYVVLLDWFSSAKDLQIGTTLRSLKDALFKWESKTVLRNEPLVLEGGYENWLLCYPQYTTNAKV
Assay: Peptide-phage display-based deep mutational scanning (DMS), USP8 Rhod domain
Format: binding
Conditions: bait USP8_Rhodanese__P40818_174_317
Experimental: Four rounds of phage selections were carried out using the second generation human disorderome library or the constructed deep mutational scanning library. At least three individual replicates were used for each bait protein. 10 µg of GST-tagged proteins or GST control (diluted in PBS from the stock of proteins kept in the purification elution buffer) were immobilized in 100 µL PBS on a 96-well MaxiSorp (Nunc) plate overnight at 4 °C. The plates were incubated with blocking buffer (with 0.5% BSA in PBS) for 1 h at 4 °C followed by washing with 0.05% Tween 20 in PBS four times. The naïve phage library (10^11 CFU) was diluted in 1/5th volume PEG/NaCl (20% PEG-8000, 0.4 M NaCl) and 1X PBS, incubated on ice for 10 min and centrifuged at 10,000 [drawing 3] g for 10 min. The pellet was resuspended in the volume of PBS (100 µL/ well). The GST-coated control plate was incubated with 100 µL library per well in PBS for 1 h at 4 °C to remove non-specific binders. The supernatant was transferred to the target wells and incubated for 2 h at 4 °C. The wells were washed five times with 0.05% Tween 20 in PBS and the bound phages were eluted with 100 µL per well log-phase E. coli OmniMAX by incubating at 37° C while shaking. After 30 min, M13KO7 helper phages were added and incubated for an additional 45 min. The bacterial cultures were transferred to 1 mL 2YT supplemented with 100 µg/mL carbenicillin, 30 µg/mL kanamycin and 0.3 mM IPTG and grew overnight at 37 °C while shaking. The following day the cultures were centrifuged for 10 min at 2,000 [drawing 4] g, 4 °C. 1/10th volume of 10 [drawing 5] PBS was added to adjust the pH and heated at 65 °C for 10 min. The phage pools from each round were used as in-phages for the next round of selections.
The samples were prepared for NGS as previously described. […] The PCR products were normalized with 25 µL Mag-bind Total Pure NGS beads (Omega Biotek) and 10 µL of each eluted sample (Qiagen Elution Buffer) was pooled and cleaned-up with a PCR purification kit (Qiagen). The PCR product was confirmed by 2% agarose electrophoresis and the band was extracted with QIAquick Gel extraction Kit (Qiagen) and eluted with 30 µL TE buffer. The dsDNA was quantified using QuantiT PicoGreen dsDNA Assay Kit (Thermo Fisher) and sent for NGS (Illumina MiSeq v3, 1 × 150 bp read setup, 20% PhiX, NGI SciLifeLab facility, Sweden). The NGS data were demultiplexed, adapter regions were trimmed and sequences with an average quality of at least 20 were translated to peptide sequences. The NGS data were analysed using custom Python scripts. The total read NGS counts for each selection experiment of each peptide sequence were compiled and annotated in PepTools (https://slim.icr.ac.uk/tools/peptools/). Since ProP-PD is in essence a competition assay, the possibility of the input phage library influencing the selection outcome was explored. […] Pearson correlation coefficient and p-value were calculated using Python’s SciPy library.

[1] = wild-type/mutant pair ratio of averaged fractions, negative values where mutant fraction is higher
[2] = wild type/mutant pair, vs hit_library_peptide_wt GLALWEAKMKQLAERA, negative where mutant fraction exceeds wild type, ProP-PD pairs (sheet S7.B)
[3] = ProP-PD pairs, wild-type/mutant pair, wild type KIAA1614 569-584 GMERVLGGLSSPLRLL (wt_00013)
[4] = ProP-PD DMS, pair wild-type GMERVLGGLSSPLRLL (wt_00013) vs mutant, positive where wild-type fraction is higher, negative where mutant fraction is higher

hit_pair_ratio [1]: 1.39
Sequence: GLALWEAKMKSLAERA

hit_pair_ratio [1]: 1.94
Sequence: GLALWEAKMRQLAERA

hit_pair_ratio [1]: -7.21
Sequence: GLALWEAKMSQLAERA

hit_pair_ratio [1]: 29.92
Sequence: GLALWEAKMTQLAERA

hit_pair_ratio [2]: 276.75
Sequence: GLALWEAKNKQLAERA

hit_pair_ratio [2]: 151.61
Sequence: GLALWEAKQKQLAERA

hit_pair_ratio [2]: 44.28
Sequence: GLALWEAKRKQLAERA

hit_pair_ratio [2]: -2.49
Sequence: GLALWEAKSKQLAERA

hit_pair_ratio [2]: 2.15
Sequence: GLALWEAKWKQLAERA

hit_pair_ratio [2]: 123.00
Sequence: GLALWEAKYKQLAERA

hit_pair_ratio [2]: 1107.01
Sequence: GLALWEAQMKQLAERA

hit_pair_ratio [2]: 553.50
Sequence: GLALWEEKMKQLAERA

hit_pair_ratio [2]: 1107.01
Sequence: GLALWEFKMKQLAERA

hit_pair_ratio [2]: 68.11
Sequence: GLALWEGKMKQLAERA

hit_pair_ratio [2]: 1107.01
Sequence: GLALWELKMKQLAERA

hit_pair_ratio [2]: 20.50
Sequence: GLALWEMKMKQLAERA

hit_pair_ratio [2]: 87.84
Sequence: GLALWEPKMKQLAERA

hit_pair_ratio [2]: -1.30
Sequence: GLALWEQKMKQLAERA

hit_pair_ratio [2]: 1107.01
Sequence: GLALWERKMKQLAERA

hit_pair_ratio [2]: 208.81
Sequence: GLALWESKMKQLAERA

hit_pair_ratio [2]: 23.98
Sequence: GLALWEWKMKQLAERA

hit_pair_ratio [2]: 208.81
Sequence: GLALWEYKMKQLAERA

hit_pair_ratio [2]: 553.50
Sequence: GLALWFAKMKQLAERA

hit_pair_ratio [2]: 417.62
Sequence: GLALWVAKMKQLAERA

hit_pair_ratio [2]: -5.97
Sequence: GLAMWEAKMKQLAERA

hit_pair_ratio [2]: 4.24
Sequence: GLANWEAKMKQLAERA

hit_pair_ratio [2]: 1107.01
Sequence: GLAPWEAKMKQLAERA

hit_pair_ratio [2]: -4.35
Sequence: GLDLWEAKMKQLAERA

hit_pair_ratio [3]: 1.84
Sequence: GLERVLGGLSSPLRLL

hit_pair_ratio [2]: 123.66
Sequence: GLGLWEAKMKQLAERA

hit_pair_ratio [2]: 10.62
Sequence: GLPLWEAKMKQLAERA

hit_pair_ratio [2]: 92.62
Sequence: GLTLWEAKMKQLAERA

hit_pair_ratio [2]: 49.74
Sequence: GLWLWEAKMKQLAERA

hit_pair_ratio [2]: 27.03
Sequence: GLYLWEAKMKQLAERA

hit_pair_ratio [3]: 131.67
Sequence: GMEAVLGGLSSPLRLL

hit_pair_ratio [3]: 160.99
Sequence: GMELVLGGLSSPLRLL

hit_pair_ratio [3]: 4.69
Sequence: GMERALGGLSSPLRLL

hit_pair_ratio [3]: -11.89
Sequence: GMERDLGGLSSPLRLL

hit_pair_ratio [3]: 5.91
Sequence: GMERLLGGLSSPLRLL

hit_pair_ratio [3]: -2.85
Sequence: GMERNLGGLSSPLRLL

hit_pair_ratio [3]: 29.56
Sequence: GMERVGGGLSSPLRLL

hit_pair_ratio [3]: -3.21
Sequence: GMERVIGGLSSPLRLL

hit_pair_ratio [3]: -2.19
Sequence: GMERVLEGLSSPLRLL

hit_pair_ratio [3]: -80.43
Sequence: GMERVLGGESSPLRLL

hit_pair_ratio [4]: 53.66
Sequence: GMERVLGGFSSPLRLL

hit_pair_ratio [4]: 321.97
Sequence: GMERVLGGLASPLRLL

hit_pair_ratio [4]: 131.67
Sequence: GMERVLGGLESPLRLL

hit_pair_ratio [4]: 131.67
Sequence: GMERVLGGLPSPLRLL

hit_pair_ratio [4]: -19.71
Sequence: GMERVLGGLSDPLRLL

More lines, now with the values behind:

Sequence: GLALWEAKMKTLAERA
hit_pair_ratio [1]: 33.74

Sequence: GLALWEAKMKVLAERA
hit_pair_ratio [1]: 553.50

Sequence: GLALWEAKMKWLAERA
hit_pair_ratio [1]: 221.40

Sequence: GLALWEAKMKYLAERA
hit_pair_ratio [1]: 55.35

Sequence: GLALWEAKMLQLAERA
hit_pair_ratio [1]: 26.20

Sequence: GLALWEAKMMQLAERA
hit_pair_ratio [1]: 417.62

Sequence: GLALWEAKMNQLAERA
hit_pair_ratio [2]: -19.47

Sequence: GLALWEAKMPQLAERA
hit_pair_ratio [1]: 553.50

Sequence: GLALWEAKMQQLAERA
hit_pair_ratio [1]: 31.63

Sequence: GLALWEAKMVQLAERA
hit_pair_ratio [1]: -1.44

Sequence: GLALWEAKMWQLAERA
hit_pair_ratio [1]: 2.24

Sequence: GLALWEAKMYQLAERA
hit_pair_ratio [1]: 31.05

Sequence: GLALWEAKPKQLAERA
hit_pair_ratio [2]: 195.90

Sequence: GLALWEAKTKQLAERA
hit_pair_ratio [2]: 26.45

Sequence: GLALWEAKVKQLAERA
hit_pair_ratio [2]: 369.00

Sequence: GLALWEANMKQLAERA
hit_pair_ratio [2]: 208.81

Sequence: GLALWEAPMKQLAERA
hit_pair_ratio [2]: 276.75

Sequence: GLALWEHKMKQLAERA
hit_pair_ratio [2]: 2.05

Sequence: GLALWEIKMKQLAERA
hit_pair_ratio [2]: 123.00

Sequence: GLALWENKMKQLAERA
hit_pair_ratio [2]: 24.65

Sequence: GLALWETKMKQLAERA
hit_pair_ratio [2]: 11.88

Sequence: GLALWEVKMKQLAERA
hit_pair_ratio [2]: 92.62

Sequence: GLALWGAKMKQLAERA
hit_pair_ratio [2]: 24.44

Sequence: GLALWHAKMKQLAERA
hit_pair_ratio [2]: 123.00

Sequence: GLALWSAKMKQLAERA
hit_pair_ratio [2]: 21.71

Sequence: GLALWYAKMKQLAERA
hit_pair_ratio [2]: 417.62

Sequence: GLAQWEAKMKQLAERA
hit_pair_ratio [2]: 10.90

Sequence: GLARWEAKMKQLAERA
hit_pair_ratio [2]: 12.82

Sequence: GLASWEAKMKQLAERA
hit_pair_ratio [2]: 101.08

Sequence: GLATWEAKMKQLAERA
hit_pair_ratio [2]: 8.05

Sequence: GLAVWEAKMKQLAERA
hit_pair_ratio [2]: -2.03

Sequence: GLELWEAKMKQLAERA
hit_pair_ratio [2]: -13.35

Sequence: GLFLWEAKMKQLAERA
hit_pair_ratio [2]: 1107.01

Sequence: GLHLWEAKMKQLAERA
hit_pair_ratio [2]: 553.50

Sequence: GLILWEAKMKQLAERA
hit_pair_ratio [2]: 1107.01

Sequence: GLKLWEAKMKQLAERA
hit_pair_ratio [2]: 369.00

Sequence: GLLLWEAKMKQLAERA
hit_pair_ratio [2]: 1107.01

Sequence: GLMLWEAKMKQLAERA
hit_pair_ratio [2]: 20.89

Sequence: GLQLWEAKMKQLAERA
hit_pair_ratio [2]: -1.71

Sequence: GLSLWEAKMKQLAERA
hit_pair_ratio [2]: 33.04

Sequence: GLVLWEAKMKQLAERA
hit_pair_ratio [2]: 27.71

Sequence: GMALWEAKMKQLAERA
hit_pair_ratio [2]: 7.96

Sequence: GMARVLGGLSSPLRLL
hit_pair_ratio [3]: 8.89

Sequence: GMDRVLGGLSSPLRLL
hit_pair_ratio [3]: -1.75

Sequence: GMENVLGGLSSPLRLL
hit_pair_ratio [3]: 107.32

Sequence: GMERELGGLSSPLRLL
hit_pair_ratio [3]: -10.69

Sequence: GMERFLGGLSSPLRLL
hit_pair_ratio [3]: -9.37

Sequence: GMERGLGGLSSPLRLL
hit_pair_ratio [3]: -1.02

Sequence: GMERHLGGLSSPLRLL
hit_pair_ratio [3]: -4.18

Sequence: GMERILGGLSSPLRLL
hit_pair_ratio [3]: 20.85

Sequence: GMERKLGGLSSPLRLL
hit_pair_ratio [3]: 30.82

Sequence: GMERMLGGLSSPLRLL
hit_pair_ratio [3]: -1.32

Sequence: GMERPLGGLSSPLRLL
hit_pair_ratio [3]: 1.07

Sequence: GMERQLGGLSSPLRLL
hit_pair_ratio [3]: -6.89

Sequence: GMERRLGGLSSPLRLL
hit_pair_ratio [3]: 16.75

Sequence: GMERSLGGLSSPLRLL
hit_pair_ratio [3]: 12.88

Sequence: GMERTLGGLSSPLRLL
hit_pair_ratio [3]: -5.12

Sequence: GMERVFGGLSSPLRLL
hit_pair_ratio [3]: 321.97

Sequence: GMERVLAGLSSPLRLL
hit_pair_ratio [3]: -1.35

Sequence: GMERVLDGLSSPLRLL
hit_pair_ratio [3]: -20.23

Sequence: GMERVLFGLSSPLRLL
hit_pair_ratio [3]: -3.55

Sequence: GMERVLGDLSSPLRLL
hit_pair_ratio [3]: 321.97

Sequence: GMERVLGGASSPLRLL
hit_pair_ratio [3]: 1.62

Sequence: GMERVLGGDSSPLRLL
hit_pair_ratio [3]: -19.26

Sequence: GMERVLGGGSSPLRLL
hit_pair_ratio [4]: 20.85

Sequence: GMERVLGGHSSPLRLL
hit_pair_ratio [4]: 49.95

Sequence: GMERVLGGISSPLRLL
hit_pair_ratio [3]: 4.20

Sequence: GMERVLGGKSSPLRLL
hit_pair_ratio [4]: 20.99

Sequence: GMERVLGGLHSPLRLL
hit_pair_ratio [4]: 1.07

Sequence: GMERVLGGLISPLRLL
hit_pair_ratio [4]: 321.97

Sequence: GMERVLGGLSAPLRLL
hit_pair_ratio [4]: 160.99

Sequence: GMERVLGGLSEPLRLL
hit_pair_ratio [4]: 15.92

Sequence: GMERVLGGLSFPLRLL
hit_pair_ratio [4]: 80.49

Sequence: GMERVLGGLSNPLRLL
hit_pair_ratio [4]: -9.56

Sequence: GMERVLGGLSRPLRLL
hit_pair_ratio [4]: 321.97

Sequence: GMERVLGGLSSLLRLL
hit_pair_ratio [4]: 321.97

Sequence: GMERVLGGLSSPARLL
hit_pair_ratio [4]: 46.00

Sequence: GMERVLGGLSSPDRLL
hit_pair_ratio [4]: 54.66

Sequence: GMERVLGGLSSPERLL
hit_pair_ratio [4]: 4.36
